Experimental data published in article PMC6295574, “Molecular and Functional Characterization of Odorant Binding Protein 7 From the Oriental Fruit Moth Grapholita molesta (Busck) (Lepidoptera: Tortricidae)” (Frontiers in Physiology, 2018).
“Also recorded” adds a separate entry of the source. Like-named read-outs stand apart in the source and are kept apart here.

Tests used:
[1] = molecular target: T1, rGmolOBP7 (recombinant GmolOBP7) (Grapholita molesta, UniProt A0A2R4SBC1); test: biochemical; assay type: binding; settings: for binding to rGmolOBP7 (in words): competitive binding, 1-NPN probe
Method: (§1) Fluorescence intensity was detected on a spectrophotofluorometer (F-4500, Hitachi, Japan) at room temperature using a quartz cuvette with a 1 cm light path. The silt width of excitation and emissions were all 10 nm. The fluorescence probe 1-NPN was excited at 337 nm and the emission spectra were recorded between 370 and 550 nm. Four sex pheromone components and 31 volatiles, derived from peach shoots and pear fruits, were selected for binding assays (Table 2). The probe 1-NPN and tested ligands were all dissolved in spectrophotometric-grade methanol to obtain a 1 mM stock solution.
The corresponding florescence intensity values were collected as three independent measurements. The binding constant (K1−NPN) of 1-NPN to rGmolOBP7 was calculated using GraphPad Prism 5 software (GraphPad Software, Inc.) via nonlinear regression for a unique site of binding.

[2] = test system: male antennae of G. molesta; design: method as in Cardé et al., 1975, 1979; settings: ref Cardé et al., 1975, 1979; cited from earlier work
[3] = test system: Grapholita molesta antennae; test: EAG responses of GmolOBP7-dsRNA-injected moths to stimulants; settings: stimulant 10 mg/mL in liquid paraffin; for EAG response of dsGmolOBP7-injected male moths vs dsGFP-injected and non-injected controls: 1-day-old males; for EAG response of dsRNA-treated moths vs non-injected control: male and female moths, 1-day-old
Method: Based on the expression patterns observed at different insect stages, 5-day-old G. molesta pupae (later-pupae) were selected to receive a dsRNA microinjection. The conjunctivum between the prothorax and mesothorax, the conjunctivum between the mesothorax and metathorax and the conjunctivum between the thorax and abdomen were initially selected as putative injection sites. Then, 39, 69, and 138 nL of RNase-free H2O were injected into different conjunctiva, respectively. A total of 69 nL (approximately 241.5 ng dsRNA) of dsGmolOBP7 or dsGFP was injected into the appropriate injection sites of each 5-day-old pupa, by using a PL1-100 Pico-Injector (Harvard Apparatus, Holliston, MA, USA) operated by an MP-255 Micromanipulator (Sutter, Novato, CA, USA). Each type of dsRNA was injected into 600 male and 600 female moths. The heads (with antenna) of 1-, 2-, 3-, and 4 day-old adults were dissected and immediately stored at −80°C prior to use. The total RNA and first-strand cDNA were obtained in accordance with previous methods. The specimens were used for qRT-PCR analysis to test the reduction in GmolOBP7 transcription. Experiments were performed with three biological replicates and three technical replicates.
EAG responses of dsRNA-injected (including dsGmolOBP7 and dsGFP) moths and non-injected controls, to sex pheromones and host plant volatiles were detected using Electroantennography. All stimulants were diluted with liquid paraffin to the final concentration of 10 mg/mL. Liquid paraffin and cis-3-hexenyl acetate were used as the blank and reference control, respectively. Both ends of adult antennae were cut and blocked with a drop of Spectra® 360 Electrode Gel (Parker Laboratories, Fairfield, USA). The basal section was connected to the reference electrode while the distal end was linked to the recording electrode. A filtered humidified air stream was delivered by a Syntech stimulus controller (CS55 model, Syntech, Germany) at a constant flow rate of 50 cm/s, and the time of stimuli flow was 0.5 s. Filter paper strips (0.6 cm × 4.5 cm) were dripped with 15 μL of chemical solution as a stimulus source and inserted into a 1.5 mL micropipet tip. A set of stimulants consisted of four sex pheromones and five host-plant volatiles which can be strongly bound with rGmolOBP7. Each antenna measured the group of randomly arranged stimulants described above. The antennae were stimulated one time with liquid paraffin and cis-3-hexenyl acetate and dissolved in solvent, before and after each group stimulation, in order to ensure the tested antenna were activated and the connecting pipe was not contaminated by stimulants. Recordings per stimulant were taken and the antennal responses were recorded. Eight male and female antennae were measured for each stimulant. The paired t-test was used to determine whether the difference in EAG values were significant between the dsRNA injected moths (dsGmolOBP7 and dsGFP) and the non-injected control. All the data were analyzed using SPSS 18.0 software (SPSS Inc., Chicago, IL, USA).

[4] = molecular target: T1, rGmolOBP7 (recombinant GmolOBP7); test: Binding of fluorescence probe 1-NPN to rGmolOBP7 (binding curve, Scatchard plot); settings: 2 μM protein in 20 mM Tris-HCl pH 7.4, 1-NPN up to 18 μM; read-out: dissociation constant (Kd) of 1-NPN
Method: as §1, with “solution. The binding affinity of rGmolOBP7 with 1-NPN was measured by adding aliquots of 1-NPN to a 2 μM protein solution (diluted with 20 mM Tris-HCl pH 7.4) to final concentrations of 0 to 18 μM.” for “solution.”
The corresponding florescence intensity values were collected as three independent measurements. The binding constant (K1−NPN) of 1-NPN to rGmolOBP7 was calculated using GraphPad Prism 5 software (GraphPad Software, Inc.) via nonlinear regression for a unique site of binding. The dissociation constant (Ki) of each ligands competitive binding to rGmolOBP7, were calculated from the corresponding IC50, by using the equation Ki = [IC50]/(1+[1-NPN]/K1−NPN), where [1-NPN] is the free concentration of 1-NPN, and K1−NPN is the dissociation constant of the complex protein/1-NPN.

[5] = 2 μM rGmolOBP7 and 2 μM 1-NPN, 20 mM Tris-HCl pH 7.4, room temperature, three independent measurements, read-out: IC50
[6] = calculated from IC50 by Ki = [IC50]/(1+[1-NPN]/K1-NPN), read-out: Ki

T1 sequence (A0A2R4SBC1 entry or part of it): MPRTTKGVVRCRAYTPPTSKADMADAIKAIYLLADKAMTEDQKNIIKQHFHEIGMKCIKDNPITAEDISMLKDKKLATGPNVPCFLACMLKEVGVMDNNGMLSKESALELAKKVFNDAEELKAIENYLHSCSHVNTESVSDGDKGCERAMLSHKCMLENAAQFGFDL

| Compound | IC50 [1, 5] | Ki [1, 6] | IC50 [1] | Ki [1] | further results |
| --- | --- | --- | --- | --- | --- |
| C=CC(C)(O)CCC=C(C)CCC=C(C)C (mixture of isomers) [Nerolidol] | > 35 µM | > 35 µM | – | – | – |
| CCCCCCCCCCO [1-Decanol] | – | – | > 35 µM | > 35 µM | – |
| CCCCCCCCCCCCO [1-Dodecanol] | 10.7 ± 0.85 µM | 7.48 µM | – | – | EAG response of male antennae [2]: weak EAG response; EAG response of dsGmolOBP7-injected male moths vs dsGFP-injected and non-injected controls ([3]; 15 μL): significantly reduced; EAG response of dsGmolOBP7-injected male moths vs dsGFP-injected and non-injected controls ([3]; 15 μL, listed as 12:OH): significantly decreased |
| CCCCCCCCCCCCCCCCO [1-Hexadecanol] | > 35 µM | > 35 µM | – | – | – |
| CCCCCCO [1-Hexanol] | – | 17.4 µM | 24.9 ± 1.28 µM | – | – |
| c1ccc(Nc2cccc3ccccc23)cc1 [1-NPN, N-phenyl-1-naphthylamine] | – | – | – | – | Kd [4]: 2.3 µM |
| CCCCCCCCCCCCCCO [1-Tetradecanol] | – | – | > 35 µM | > 35 µM | – |
| C=C1[C@@H]2CC[C@@H](C2)C1(C)C [(-)-Camphene] | > 35 µM | > 35 µM | – | – | – |
| CCC/C=C/C=O [(E)-2-Hexenal] | – | – | 24.4 ± 1.53 µM | 17 µM | – |
| CCC/C=C/CCCCCCCOC(C)=O [(E)-8-dodecenyl acetate] | > 35 µM | > 35 µM | – | – | binding to rGmolOBP7 (in words) [1]: did not bind; EAG response of dsRNA-treated moths vs non-injected control [3]: not significantly different |
| CC/C=C\CCO [(Z)-3-Hexen-1-ol] | – | – | 17.6 ± 0.52 µM | 12.3 µM | – |
| CC/C=C\CCOC(C)=O [(Z)-3-Hexenyl acetate] | 19.6 ± 0.27 µM | 13.7 µM | – | – | EAG response of dsRNA-treated moths vs non-injected control [3]: not significantly different |
| CCC/C=C\CCCCCCCOC(C)=O [(Z)-8-dodecenyl acetate] | – | – | – | – | binding to rGmolOBP7 (in words) [1]: did not bind; EAG response of dsRNA-treated moths vs non-injected control [3]: not significantly different |
| CCC/C=C\CCCCCCCO [(Z)-8-dodecenyl alcohol] | > 35 µM | > 35 µM | – | – | binding to rGmolOBP7 (in words) [1]: did not bind; EAG response of dsRNA-treated moths vs non-injected control [3]: not significantly different |
| O=Cc1ccccc1 [Benzaldehyde] | – | – | 20.2 ± 0.27 µM | 14.1 µM | – |
| N#Cc1ccccc1 [Benzonitrile] | – | – | 17.9 ± 1.29 µM | 12.5 µM | – |
| OCc1ccccc1 [Benzyl alcohol] | – | – | > 35 µM | > 35 µM | – |
| CCCCOC(C)=O [Butyl acetate] | – | – | 18.1 ± 1.57 µM | 12.6 µM | – |

| Compound | IC50 [1, 5] | Ki [1, 6] | IC50 [1] | Ki [1] | further results |
| --- | --- | --- | --- | --- | --- |
| CCCCOC(=O)CCC [Butyl butyrate] | 16.3 ± 1.71 µM | 11.3 µM | – | – | – |
| CCCCCC(=O)OCCCC [Butyl hexanoate] | 24.4 ± 0.77 µM | 17 µM | – | – | – |
| CCCCCCCCCC=O [Decanal] | 18.2 ± 1.27 µM | 12.7 µM | – | – | – |
| CCCCCCC=O [Heptanal] | – | 10.9 µM | 15.7 ± 0.64 µM | – | – |
| CCCCCC=O [Hexanal] | – | – | 27.4 ± 1.59 µM | 19.1 µM | – |
| CCCCCCCCCCCC=O [Lauraldehyde] | 6.18 ± 0.43 µM | 4.31 µM | – | – | EAG response of dsRNA-treated moths vs non-injected control [3]: not significantly different |
| CCC(C)=CCCC(C)=CC#N [Lemonile] | > 35 µM | > 35 µM | – | – | – |
| C=CC(C)(O)CCC=C(C)C (stereo not drawn) [Linalool] | – | – | 21.7 ± 1.11 µM | 15.1 µM | – |
| CC/C=C\CC1C(=O)CCC1CC(=O)OC (stereo not drawn) [Methyl jasmonate] | 18.7 ± 0.22 µM | 13 µM | – | – | – |
| CCCCCCCCCCCCCC(=O)OC [Methyl myristate] | > 35 µM | > 35 µM | – | – | – |
| CCCCCCCCCCCCCCCC(=O)OC [Methyl palmitate] | > 35 µM | > 35 µM | – | – | – |
| COC(=O)c1ccccc1O [Methyl salicylate] | – | – | 14.1 ± 0.22 µM | 9.81 µM | – |
| CCCCCCCCC=O [Nonanal] | 28.6 ± 3.38 µM | 19.9 µM | – | – | – |
| CCCCC/C=C\C=C\C(=O)OCC [Pear ester, Ethyl (E, Z)-2,4-decadienate] | 3.62 ± 0.25 µM | 2.52 µM | – | – | EAG response of dsGmolOBP7-injected female moths vs dsGFP-injected and non-injected controls ([3]; 1-day-old females, 15 μL): significantly reduced; also recorded: significantly decreased; EAG response of dsGmolOBP7-injected male moths vs dsGFP-injected and non-injected controls ([3]; 15 μL): significantly reduced; also recorded: significantly decreased |
| CCCCCCCCCCCCCC=O [Tetradecanal] | > 35 µM | > 35 µM | – | – | – |
| C=C/C(C)=C/CCC(=C)C [α-Ocimene] | 11.1 ± 0.2 µM | 7.75 µM | – | – | EAG response of dsRNA-treated moths vs non-injected control [3]: not significantly different |
| CC1=CCC2CC1C2(C)C (stereo not drawn) [α-Pinene] | – | – | 17.1 ± 1.2 µM | 11.9 µM | EAG response of dsRNA-treated moths vs non-injected control [3]: not significantly different |
| C=C1CC/C=C(\C)CC[C@@H]2[C@@H]1CC2(C)C [β-Caryophyllene] | – | – | > 35 µM | > 35 µM | – |
